Test results from US20140329863A1 (priority 2011, published 2014).
Where two headings read alike, the source gives them in different places.

Tests used:
N2a-cl3 cells = test: cells; settings: Mus musculus, N2a-cl3, read-out: Dividing Calcein EC50 (μM) Mean (n = 3)
[1] = tested on: PrP^Sc in dividing ScN2a-cl3 cells; assay type: cell-based, mouse; design: Dividing ELISA pEC50 (μM) 1st Expt. / Dividing ELISA pEC50 (μM) 2nd Expt. / Dividing ELISA pEC50 (μM) 3rd Expt. / Dividing ELISA pEC50 (μM) Mean: unit not given here; settings: ScN2a-cl3 dividing cells
[2] = tested on: PrP^Sc in nondividing ScN2a-cl3 cells; assay type: cell-based, mouse; settings: read-out: Non-Dividing ELISA EC50 (μM) Mean (n = 3); ScN2a-c13 non-dividing cells; mean n = 3
[3] = read-out: Dividing ELISA EC50 (μM) 1st Expt., 1st determination
[4] = read-out: Dividing ELISA EC50 (μM) 2nd Expt., 2nd determination
[5] = read-out: Dividing ELISA EC50 (μM) 3rd Expt., 3rd determination
[6] = read-out: Dividing ELISA EC50 (μM) Mean, mean of three determinations

Structure (SMILES)	EC50 (N2a-cl3 cells)	Dividing ELISA pEC50 (μM) 1st Expt. ([1]; 1st determination)	Dividing ELISA pEC50 (μM) 2nd Expt. ([1]; 2nd determination)	Dividing ELISA pEC50 (μM) 3rd Expt. ([1]; 3rd determination)	Dividing ELISA pEC50 (μM) Mean ([1]; mean of three determinations)	EC50 [1, 3]	EC50 [1, 4]	EC50 [1, 5]	EC50 [1, 6]	EC50 [2]	melting point
COc1ccc(-c2csc(Nc3cnccn3)n2)cc1OC [compound 11, [4-(3,4-dimethoxyphenyl)-thiazol-2-yl]pyrazin-2-yl-amine]	> 32 µM	4.59	5.03	4.93	4.85	26 µM	9.23 µM	11.7 µM	15.6 µM	> 32 µM	205 to 207 °C
COc1ccc(-c2csc(Nc3ncccc3C)n2)cc1OC [compound 15, [4-(3,4-dimethoxyphenyl)-thiazol-2-yl]-(3-methylpyridin-2-yl)-amine]	> 32 µM	4.89	5.68	5.17	5.25	13 µM	2.07 µM	6.81 µM	7.29 µM	> 32 µM	264 to 266 °C
COc1ccc(-c2csc(Nc3cc(C)ccn3)n2)cc1OC [compound 16, [4-(3,4-dimethoxyphenyl)-thiazol-2-yl]-(4-methylpyridin-2-yl)-amine]	> 32 µM	5.95	6.13	5.95	6.01	1.13 µM	0.736 µM	1.13 µM	1 µM	> 32 µM	211 to 213 °C
COc1ccc(-c2csc(Nc3ccc4ccccc4c3)n2)cc1OC [compound 19, [4-(3,4-dimethoxyphenyl)-thiazol-2-yl]-naphthalen-2-yl-amine]	> 32 µM	6.36	6.50	6.38	6.41	0.436 µM	0.317 µM	0.413 µM	0.389 µM	> 32 µM	221 to 224 °C
COc1ccc(-c2csc(Nc3cccc4ccccc34)n2)cc1OC [compound 20, [4-(3,4-dimethoxyphenyl)-thiazol-2-yl]-naphthalen-1-yl-amine]	> 32 µM	>4.5	>4.5	>4.5		> 32 µM	> 32 µM	> 32 µM	> 32 µM	> 32 µM	244 to 246 °C
COc1ccc(-c2csc(Nc3ccc(C)cn3)n2)cc1 [compound 21, [4-(4-Methoxyphenyl)-thiazol-2-yl]-(5-methylpyridin-2-yl)-amine]	> 32 µM	5.30	5.72	5.66	5.56	5.02 µM	1.89 µM	2.19 µM	3.03 µM	> 32 µM	246 to 248 °C
COc1ccccc1-c1csc(Nc2ccc(C)cn2)n1 [compound 22, [4-(2-Methoxyphenyl)-thiazol-2-yl]-(5-methylpyridin-2-yl)-amine]	> 32 µM	>4.5	4.58	4.52		> 32 µM	26.1 µM	30.2 µM	> 29 µM	> 32 µM	228 to 230 °C
Cc1ccc(Nc2nc(-c3ccccn3)cs2)nc1 [compound 24, (5-Methylpyridin-2-yl)-(4-pyridin-2-yl-thiazol-2-yl)-amine]	0.389 µM					1.62 µM	0.507 µM	0.449 µM	0.86 µM	> 32 µM	184 to 190 °C
Cc1ccc(Nc2nc(-c3ccc(-c4ccccn4)s3)cs2)nc1 [compound 26, (5-Methylpyridin-2-yl)-[4-(5-pyridin-2-yl-thiophen-2-yl)-thiazol-2-yl]-amine]	> 32 µM	5.80	6.06	5.91	5.92	1.58 µM	0.879 µM	1.22 µM	1.23 µM	> 32 µM	197 to 199 °C
c1ccc(-c2csc(Nc3cc4ccccc4cn3)n2)cc1 [compound 33, Isoquinolin-3-yl-(4-phenylthiazol-2-yl)-amine]	> 32 µM	5.69	5.55	5.37	5.53	2.06 µM	2.85 µM	4.32 µM	3.08 µM	> 32 µM	265 to 267 °C
c1ccc(-c2ccc(-c3csc(Nc4cc5ccccc5cn4)n3)s2)nc1 [compound 34, Isoquinolin-3-yl-[4-(5-pyridin-2-yl-thiophen-2-yl)-thiazol-2-yl]-amine]	> 32 µM	5.65	5.79	5.67	5.70	2.25 µM	1.61 µM	2.16 µM	2.01 µM	> 32 µM	246 to 248 °C
c1ccc(-c2cc(-c3csc(Nc4ccccn4)n3)on2)cc1 [compound 42, [4-(3-Phenylisoxazol-5-yl)-thiazol-2-yl]pyridin-2-yl-amine]	> 32 µM	6.20	6.22	6.23	6.22	0.629 µM	0.599 µM	0.585 µM	0.604 µM	> 32 µM	211 to 215 °C
Cc1cccc(Nc2nc(-c3cc(-c4ccccc4)no3)cs2)n1 [compound 44, (6-Methylpyridin-2-yl)-[4-(3-phenylisoxazol-5-yl)-thiazol-2-yl]-amine]	> 32 µM	6.03	6.13	6.10	6.09	0.926 µM	0.733 µM	0.794 µM	0.818 µM	> 32 µM	291 to 293 °C
c1ccc(-c2cc(-c3csc(Nc4ccncc4)n3)on2)cc1 [compound 45, [4-(3-Phenylisoxazol-5-yl)-thiazol-2-yl]-pyridin-4-yl-amine]	> 32 µM	5.50	5.49	5.17	5.38	3.16 µM	3.25 µM	6.83 µM	4.42 µM	> 32 µM	269 to 270 °C
